In patent US20250195477A1, “DEUTERATED IDAZOXAN AND METHODS OF USE THEREOF” (Terran Biosciences Inc., priority 2022, published 2025):

Tests used:
[1] = Metabolic stability in human liver microsomes; type: in vitro ADME; conditions: significant if half-life increase >=15% or CLint ratio (deuterated compound/idazoxan) >1.15 or <0.85
Protocol: Test compound (1 μM) was incubated with pooled liver microsomes.
Pooled liver microsomes were purchased from a reputable commercial supplier. Microsomes were stored at −80° C. prior to use.
A minus cofactor control incubation was included for each compound tested where 0.1 M phosphate buffer pH 7.4 was added instead of NADPH (minus NADPH). Two control compounds were included with each species. All incubations were performed singularly for each test compound.
The reactions were stopped by transferring incubate into acetonitrile at the appropriate time points, in a 1:3 ratio. The termination plates were centrifuged at 3,000 rpm for 20 min at 4° C. to precipitate the protein.
Following protein precipitation, the sample supernatants were combined in cassettes of up to 4 compounds, internal standard was added and samples analysed using generic LCMS/MS conditions.
From a plot of In peak area ratio (compound peak area/internal standard peak area) against time, the gradient of the line was determined. Subsequently, half-life and intrinsic clearance were calculated using the equations below:
where V=Incubation volume (μL)/Microsomal protein (mg)
Relevant control compounds were assessed, ensuring intrinsic clearance values fell within the specified limits (if available). Any failures were rejected and the assay repeated. The intrinsic clearance (CLint) of the test compound and standard error (SE CLint), t½ and n (number of time points used to calculate CLint) were returned.

[2] = Metabolic stability in human liver microsomes; type: in vitro ADME; conditions: pH 7.4, pooled human liver microsomes 0.5 mg/mL, test compound 3 μM, NADPH, 0, 5, 15, 30, 45 min, LC-MS/MS; for microsomal CLint at 3 μM: read-out: CLint (μL/min/mg protein)
[3] = background statement; species and route not given; cited from earlier work

Structure (SMILES)	differences in in vitro clearance and half-life compared to idazoxan [1]	half-life at 3 μM [2]	microsomal CLint at 3 μM [2]	idazoxan reaching systemic circulation [3]
[2H]c1ccc2c(c1)OCC(C1=NCCN1)O2 (centres unmarked) [Compound 1, 2-(2,3-dihydrobenzo[b][1,4]dioxin-2-yl-6-d)-4,5-dihydro-1H-imidazole]	significant differences	8.05 h	2.87 µL/min/mg	
[2H]c1ccc2c(c1)OC(C1=NCCN1)CO2 (centres unmarked) [Compound 2, 2-(2,3-dihydrobenzo[b][1,4]dioxin-2-yl-7-d)-4,5-dihydro-1H-imidazole]	significant differences	21.8 h	1.06 µL/min/mg	
[2H]c1cc2c(cc1[2H])OC(C1=NCCN1)CO2 (centres unmarked) [Compound 3, 2-(2,3-dihydrobenzo[b][1,4]dioxin-2-yl-6,7-d2)-4,5-dihydro-1H-imidazole]	significant differences	10.4 h	2.23 µL/min/mg	
[2H]c1c([2H])c([2H])c2c(c1[2H])OCC(C1=NCCN1)O2 (centres unmarked) [Compound 4, 2-(2,3-dihydrobenzo[b][1,4]dioxin-2-yl-5,6,7,8-d4)-4,5-dihydro-1H-imidazole]	significant differences	8.93 h	2.59 µL/min/mg	
[2H]c1ccc2c(c1)OCC(C1=NC([2H])([2H])C([2H])([2H])N1)O2 (centres unmarked) [Compound 49, 2-(2,3-dihydrobenzo[b][1,4]dioxin-2-yl-6-d)-4,5-dihydro-1H-imidazole-4,4,5,5-d4]	significant differences	15.5 h	1.49 µL/min/mg	
[2H]c1ccc2c(c1)OC(C1=NC([2H])([2H])C([2H])([2H])N1)CO2 (centres unmarked) [Compound 50, 2-(2,3-dihydrobenzo[b][1,4]dioxin-2-yl-7-d)-4,5-dihydro-1H-imidazole-4,4,5,5-d4]	significant differences	913 h	0.0253 µL/min/mg	
[2H]c1cc2c(cc1[2H])OC(C1=NC([2H])([2H])C([2H])([2H])N1)CO2 (centres unmarked) [Compound 51, 2-(2,3-dihydrobenzo[b][1,4]dioxin-2-yl-6,7-d2)-4,5-dihydro-1H-imidazole-4,4,5,5-d4]	significant differences	13.8 h	1.68 µL/min/mg	
[2H]c1c([2H])c([2H])c2c(c1[2H])OCC(C1=NC([2H])([2H])C([2H])([2H])N1)O2 (centres unmarked) [Compound 52, 2-(2,3-dihydrobenzo[b][1,4]dioxin-2-yl-5,6,7,8-d4)-4,5-dihydro-1H-imidazole-4,4,5,5-d4]	significant differences	7.75 h	2.98 µL/min/mg	
[2H]C1([2H])N=C(C2COc3ccccc3O2)NC1([2H])[2H] (centres unmarked) [Compound 64, 2-(2,3-dihydrobenzo[b][1,4]dioxin-2-yl)-4,5-dihydro-1H-imidazole-4,4,5,5-d4]	significant differences	7.95 h	2.91 µL/min/mg	
COc1ccc2c(c1)[C@]13CCCC[C@@H]1[C@H](C2)N(C)CC3 [Dextromethorphan, reference compound]		0.48 h	48.1 µL/min/mg	
c1ccc2c(c1)OCC(C1=NCCN1)O2 (centres unmarked) [Idazoxan]		4.28 h	5.39 µL/min/mg	27-28%
